Measurements taken from paper PMC11989239, “Structure–Property Relationships in Novel Series of Photoswitchable Local Anesthetic Ethercaine Derivatives: Emphasis on Biological and Photophysical Properties” (International Journal of Molecular Sciences, 2025).
Structures can show the parent of a compound that is named as a salt. Where two headings read alike, the source gives them in different places.

Legend:
[1] = In vitro cytotoxicity, MTT test, 24 h incubation; assay type: cell-based, human; conditions: human, dermal fibroblast cells (DF2), DF2 fibroblasts
Description: The culture of dermal fibroblast cells (DF2) was obtained from the collection of the Institute of Cytology of the Russian Academy of Sciences (Saint Petersburg, Russia). The cells were cultured in plastic vials with a cell growth surface of 25 cm^2 (Costar, Richmond, VA, USA) on DMEM/F12 medium with the addition of L-glutamine and 10% fetal bovine serum (FBS) (PanEco, Moscow, Russia). The cells were cultured at 37 °C in a humid atmosphere with a content of 5% CO2 (Binder CO2 incubator, Germany). Cell lines from 3 to 7 passages were used in the work. To conduct experiments to evaluate the cytotoxicity of compounds, cells were sieved into 96-well culture plates at a concentration of 10^5 cells per ml, incubated at 37 °C (humidified atmosphere, 5% carbon dioxide) for 24–28 h. Further, 50 µL of the studied substances was added. The cells were incubated with the compounds for 24 h at 37 °C. Next, the cytotoxic effect of the substances was evaluated by a colorimetric method using an MTT test and visually, using an inverted microscope. The criterion for evaluating the specific activity of the compound was the value of IC50, the concentration at which 50% death of culture cells was noted.

rabbit eye cornea = test system: rabbit eye cornea; parameters: method as in PMID 35628162; conditions: 2% solution of lidocaine, obtained previously, cited from earlier work; for Local Anesthetic Activity (Regnier Index, Min—13, Max—1300) Under Irradiation (λ = 365 nm): UV light irradiation
[2] = Z-E isomerization half-life by UV/Vis spectrophotometry after 365 nm irradiation; assay type: physicochemical; conditions: for τ1/2 (DMSO), Z-E isomerization half-life: RT, after 365 nm 5 min; for τ1/2 (Aqueous Kolliphor ELP), Z-E isomerization half-life: aqueous 4% Kolliphor ELP solution
Description: As one of the main physicochemical properties of photopharmacological agents, the Z-E half-life was investigated, which determines the stability of the Z-isomer. The Z-E half-lifes were measured using UV/Vis spectrophotometry, converting the compound to the Z-isomer by irradiating with UV light and observing the change in absorption intensity due to reverse Z-E relaxation.
Z-E isomerization half-life was determined using UV/Vis spectroscopy. Solutions were prepared and kept in the dark at RT before the experiment. First, the spectrum in the dark was registered ( PSSdark) , which corresponds to the photostationary state (PSS) with E-isomer predominance. Then, the cuvette with the solution was irradiated with UV light (λ = 365 nm) for 5 min to give the PSS with Z-isomer predominance. The corresponding spectrum was registered ( PSS365nm) . During the subsequent isomerization, the kinetics of changes in the absorption value were recorded at the wavelength of the absorption maximum corresponding to the E-isomer ( λmax(E)) . Then, lnAt/A0 values were calculated using the Equation (1):(1) lnAt/A0=lnAbsPSS(dark)−Abstime/AbsPSS(dark)−AbsPSS(365nm), where AbsPSS(dark) , AbsPSS(365nm), and Abstime are absorbance values at λmax(E) in the dark at the beginning of the experiment, after UV light (λ = 365 nm) irradiation, and at different time points from 0 to 60 min, respectively. Then, a graph was plotted depending on lnAt/A0 values from time, the trend line was calculated, and a first-order rate constant (k) for the thermal back Z-E isomerization reaction was obtained as the slope of the trend line.
For a first-order reaction, half-life t1/2 can be calculated using the Equation (2):(2) t1/2=ln2/k

[3] = Solubility in water / aqueous solutions; assay type: physicochemical

| τ1/2 (DMSO), Z-E isomerization half-life [2] | τ1/2 (Aqueous Kolliphor ELP), Z-E isomerization half-life [2] | solubility ([3]; water) | Structure (SMILES) | IC50 at 24 h [1] | Local Anesthetic Activity (Regnier Index, Min—13, Max—1300) Under Irradiation (λ = 365 nm) (rabbit eye cornea; listed as lidocaine) | Local Anesthetic Activity (Regnier Index, Min—13, Max—1300) Under Irradiation (λ = 365 nm) (rabbit eye cornea) | Local Anesthetic Activity (Regnier Index, Min—13, Max—1300) In the Dark (rabbit eye cornea; listed as lidocaine) | Local Anesthetic Activity (Regnier Index, Min—13, Max—1300) In the Dark (rabbit eye cornea) | Solubility in aqueous solutions (in words) ([3]; seen in the cytotoxicity test) |
| --- | --- | --- | --- | --- | --- | --- | --- | --- | --- |
| – | – | – | CCN(CC)CC(=O)Nc1c(C)cccc1C [Lidocaine 2%, Lidocaine] | > 5000 µM | 469 ± 37 | 469 ± 37 (n = 8) | 451 ± 40 | 451 ± 40 (n = 8) | – |
| 12 min | 13 min | > 100 mg/mL | c1csc(/N=N/c2ccc(OCCN3CCOCC3)cc2)n1 [Compound 25a, 2-(4-(2-(N-morpholino)-ethoxy)-phenylazo)-thiazole hydrochloride] | 200 µM | – | – | – | – | – |
| 1830 min | 31 min | – | O=C(CN1CCOCC1)Nc1ccc(/N=N/c2ccccc2)cc1 [Compound 2] | > 200 µM | – | – | – | – | poor solubility in aqueous solutions at concentrations above 200 µM |
